This is an account of results in patent US20250289804A1, “SUBSTITUTED INDOLE COMPOUNDS AND METHODS OF USE THEREOF” (NOVARTIS PHARMA AG, priority 2021, published 2025).

Like-named read-outs stand apart in the source and are kept apart here.

One test concerns C3G patients. The conditions noted are these: after 12 weeks of treatment; cited from earlier work.
For a further test, the target named is human C3bBb (Homo sapiens (Human), UniProt P00751). The test is described as follows: Human C3bBb enzyme assay (C3a generation from C3, ELISA). The class given is biochemical. The note with it: read-out: Human C3b:Bb IC50 Avg. Summed up:
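C3bBb was preformed from human C3b, CFB and CFD at 1 μM each (30 min, RT) in PBS pH 7.4 with 100 μM NiCl2 and 0.05% CHAPS. Then 3 nM complex with 1 μM human C3 was incubated with compound for 1 h at RT. C3a was quantified by ELISA against a standard curve, and IC50 came from a 10-point 4-parameter fit.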
(ELISA stands for enzyme-linked immunosorbent assay.)

The test system of test [1] is MAC formation in normal human serum. Briefly: Human serum MAC formation assay (zymosan-coated plates, 50% normal human serum). The conditions noted are these: 50% normal human serum with EGTA, 37° C. 30 minutes. A digest of the protocol:
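Compounds preincubated 15 min at RT with 50% normal human serum in gelatin buffer plus 20 mM EGTA, then complement activated 30 min at 37 °C on zymosan-coated plates. C9 neoepitope ELISA, fluorogenic readout. Percent inhibition vs EDTA-serum baseline and EGTA-serum maximum; IC50 from 4-parameter fit of 10-point curves.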

[2] abbreviates: starred values: assay conducted with 1 nM C3b:Bb enzyme.

Sequence of human C3bBb (P00751 260-764): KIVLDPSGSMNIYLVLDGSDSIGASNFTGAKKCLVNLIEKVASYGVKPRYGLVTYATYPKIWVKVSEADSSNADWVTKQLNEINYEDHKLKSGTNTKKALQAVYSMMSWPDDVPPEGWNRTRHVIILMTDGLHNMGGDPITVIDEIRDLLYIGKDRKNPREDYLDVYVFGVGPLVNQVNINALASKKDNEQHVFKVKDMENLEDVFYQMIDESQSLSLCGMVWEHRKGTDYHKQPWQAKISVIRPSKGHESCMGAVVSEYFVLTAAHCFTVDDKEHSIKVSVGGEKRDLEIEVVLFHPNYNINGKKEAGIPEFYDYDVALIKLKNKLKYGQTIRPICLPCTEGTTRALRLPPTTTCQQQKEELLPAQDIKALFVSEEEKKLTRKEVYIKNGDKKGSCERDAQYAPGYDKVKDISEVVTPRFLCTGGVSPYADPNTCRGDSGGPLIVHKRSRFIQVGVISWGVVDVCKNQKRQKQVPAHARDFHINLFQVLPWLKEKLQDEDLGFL
Sequence of human C3bBb (P01024 23-667 partner): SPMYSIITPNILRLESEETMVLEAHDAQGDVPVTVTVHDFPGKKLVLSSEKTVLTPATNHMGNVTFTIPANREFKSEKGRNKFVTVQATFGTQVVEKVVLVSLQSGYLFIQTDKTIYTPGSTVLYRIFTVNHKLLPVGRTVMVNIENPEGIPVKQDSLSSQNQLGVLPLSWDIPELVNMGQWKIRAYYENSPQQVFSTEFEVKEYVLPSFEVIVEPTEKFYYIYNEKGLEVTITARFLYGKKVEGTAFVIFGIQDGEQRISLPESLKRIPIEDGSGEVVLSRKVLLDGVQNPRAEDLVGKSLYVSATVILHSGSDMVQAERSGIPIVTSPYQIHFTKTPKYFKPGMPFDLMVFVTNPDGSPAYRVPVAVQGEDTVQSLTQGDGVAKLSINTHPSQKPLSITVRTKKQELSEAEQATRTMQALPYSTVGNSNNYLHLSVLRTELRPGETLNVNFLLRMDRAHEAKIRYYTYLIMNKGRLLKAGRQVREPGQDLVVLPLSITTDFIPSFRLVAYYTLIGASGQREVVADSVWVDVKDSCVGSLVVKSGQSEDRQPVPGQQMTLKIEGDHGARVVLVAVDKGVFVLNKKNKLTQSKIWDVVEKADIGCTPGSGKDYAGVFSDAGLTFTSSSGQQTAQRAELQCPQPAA
Sequence of human C3bBb (P01024 749-1663 partner): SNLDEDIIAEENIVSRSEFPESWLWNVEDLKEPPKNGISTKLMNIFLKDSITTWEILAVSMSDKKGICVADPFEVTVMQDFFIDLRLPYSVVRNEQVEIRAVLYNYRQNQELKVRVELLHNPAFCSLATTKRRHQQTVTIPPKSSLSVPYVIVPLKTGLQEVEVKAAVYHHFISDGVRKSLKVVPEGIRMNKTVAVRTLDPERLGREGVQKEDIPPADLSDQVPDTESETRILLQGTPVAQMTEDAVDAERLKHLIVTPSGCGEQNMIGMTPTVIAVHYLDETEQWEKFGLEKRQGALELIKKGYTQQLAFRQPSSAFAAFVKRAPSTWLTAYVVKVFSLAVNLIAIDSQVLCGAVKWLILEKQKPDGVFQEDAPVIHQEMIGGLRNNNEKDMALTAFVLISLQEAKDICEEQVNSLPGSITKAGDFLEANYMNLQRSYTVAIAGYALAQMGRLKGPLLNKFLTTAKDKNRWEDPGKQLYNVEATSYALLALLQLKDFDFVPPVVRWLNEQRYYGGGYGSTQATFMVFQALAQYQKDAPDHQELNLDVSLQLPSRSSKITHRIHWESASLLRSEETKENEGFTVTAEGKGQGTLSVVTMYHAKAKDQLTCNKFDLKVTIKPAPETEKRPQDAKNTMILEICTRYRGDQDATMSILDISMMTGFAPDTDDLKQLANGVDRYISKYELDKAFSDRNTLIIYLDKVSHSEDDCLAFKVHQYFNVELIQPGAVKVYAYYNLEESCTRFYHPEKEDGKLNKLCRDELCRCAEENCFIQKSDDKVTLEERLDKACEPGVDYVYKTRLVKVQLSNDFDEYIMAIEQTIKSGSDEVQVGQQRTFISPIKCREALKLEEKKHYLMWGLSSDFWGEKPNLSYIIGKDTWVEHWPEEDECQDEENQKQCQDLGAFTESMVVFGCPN

Turning to `CCO[C@H]1CCN(Cc2c(OC)cc(C)c3[nH]ccc23)[C@H](c2ccc(C(=O)O)cc2)C1` [iptacopan], the “efficacy (proteinuria)” value in the test with C3G patients was “reduced proteinuria”.
As to `COc1cc(C)c2[nH]ccc2c1CN1CCC2(COC2)C[C@H]1c1ccc(C(=O)O)cc1` [Example 32, (S)-4-(7-((5-methoxy-7-methyl-1H-indol-4-yl)methyl)-2-oxa-7-azaspiro[3.5]nonan-6-yl)benzoic acid], the half-maximal inhibitory concentration (IC50) (as a rule, the concentration at which inhibition is half-maximal) was less than 10 nM on human C3bBb (setting [2]) and less than 100 nM in test [1].
Taken in the same sequence, the figures for `COc1cc(C)c2[nH]ccc2c1CN1CCN(CCC(F)(F)F)C[C@H]1c1ccc(C(=O)O)cc1` [Example 68, (R)-4-(1-((5-methoxy-7-methyl-1H-indol-4-yl)methyl)-4-(3,3,3-trifluoropropyl)piperazin-2-yl)benzoic acid] were less than 10 nM and 100 to 200 nM.
Taken in the same sequence, the figures for `COc1cc(C)c2[nH]ccc2c1CN1CC[C@H](C2CCC2)C[C@H]1c1ccc(C(=O)O)cc1` (mixture of isomers) [Example 43, 4-((2S,4S)-4-cyclobutyl-1-((5-methoxy-7-methyl-1H-indol-4-yl)methyl)piperidin-2-yl)benzoic acid and 4-((2S,4R)-4-cyclobutyl-1-((5-methoxy-7-methyl-1H-indol-4-yl)methyl)piperidin-2-yl)benzoic acid] were 50 to 100 nM and greater than 500 nM.
For `COc1cc(C)c2[nH]ccc2c1CN1CC[C@@]2(CCCO2)C[C@H]1c1ccc(C(=O)O)cc1` (single isomer, unassigned) [Example 33, 4-((5S,7S)-8-((5-methoxy-7-methyl-1H-indol-4-yl)methyl)-1-oxa-8-azaspiro[4.5]decan-7-yl)benzoic acid or 4-((5R,7S)-8-((5-methoxy-7-methyl-1H-indol-4-yl)methyl)-1-oxa-8-azaspiro[4.5]decan-7-yl)benzoic acid] the same measures were greater than 100 nM and greater than 500 nM.
As to `COc1cc(C)c2[nH]ccc2c1CN1CC[C@H](n2cc(S(C)(=O)=O)cn2)C[C@H]1c1ccc(C(=O)O)cc1` (racemic) [Example 11, (±)-trans-4-(1-((5-methoxy-7-methyl-1H-indol-4-yl)methyl)-4-(4-methylsulfonyl)-1H-pyrazol-1-yl)piperidin-2-yl)benzoic acid], the IC50 on human C3bBb (3 nM C3bBb complex, 1 μM human C3, 1 hour room temperature) was greater than 100 nM; in test [1], greater than 500 nM.
